Source: publication PMC6941952, “A homogeneous bioluminescent immunoassay to probe cellular signaling pathway regulation” (Communications Biology, 2020)
Several values for one entry are separate records, joined by “and”; a condition that tells them apart may be missing. Equal entries are not always repeated.

Test system: phospho-IκBα (Ser32)
Assay: NanoBiT cell-based immunoassay, phosphorylated IκBα in MCF-7 cells
Parameters: species or system human
Settings: for Fold change (TNF-treated /Non-treated): P-IkB; for P-IkB Average / Average: background subtracted
Method: Prior to NanoBiT Cell-Based Immunoassay, 50,000 cells were seeded in 160 µl of complete growth media per well of a 96-well plate and incubated overnight. The cells were checked under microscope and it was determined that 50,000 cells per well in 96-well plate is under 90% confluency for all cells tested. If necessary, the cell culture media were replaced with serum-free media after the cells were stably adherent on the plate and incubated overnight. To treat cells with activators or inhibitors, medium was changed to 30 µl of medium containing inhibitors. If activation of a specific pathway is needed, the cells were stimulated with 10 µl of medium containing activators. To lyse the cells, 10 µl of lysis buffer containing 0.1% digitonin diluted in 1X immunoassay buffer with protease and phosphatase inhibitors was added and the plates were mixed vigorously for 20 min. Then, 50 µl of an antibody mix containing two primary antibodies against the target protein and NanoBiT detecting antibodies (0.3 µl each per well), diluted in 1X immunoassay buffer was added to the lysates. The plates were incubated at 23 °C for 90 min, followed by the addition of 25 µl of Nano-Glo® reagent consisting of Nano-Glo® Luciferase Assay Substrate mixed with 1X immunoassay buffer. Luminescence was measured using a plate-reading luminometer.
In all, 50,000 MCF-7 cells were seeded in 160 µl complete growth medium per well of a 96-well plate and incubated overnight. Half of the cells were treated with 50 ng per ml TNFα and half with vehicle. Cells were lysed as described above and a mixture of NanoBiT secondary antibodies with primary antibodies at the matrix concentrations described in Fig. 2a were added. After 90 min incubation, the Nano-Glo® reagent was added to the reactions as described above and luminescence was measured using a plate-reading luminometer.
Single dose or dose response inhibitor treatments were performed prior to activation of the pathways as follows. For IκBα, the cells were treated in 30 µl medium with IKK16 or MG132 for 60 min before the addition of 10 µl of DMEM containing appropriate concentration of TNFα. To measure phosphorylation of AKT or STAT3, the corresponding NanoBiT immunoassays were developed with MCF-7 or A431 cells, respectively, according the same scheme used to develop the IκBα assay using the primary antibodies for AKT and STAT3 described in the reagents section. For the AKT assay, MCF-7 cells were incubated overnight in phenol-red free DMEM medium (Gibco #21063-029) without serum. Treatment with LY294002 was performed in 30 µl medium and cells were incubated for 60 min before the addition of 1 µM Insulin. To measure STAT3 phosphorylation, A431 cells were incubated overnight in DMEM medium without serum. […] After addition of the stimulators, the cells were incubated for additional times as follows. IκBα phosphorylation and degradation analyses required both time courses and single time points as described in figures. […] The NanoBiT immunoassay protocol was followed as described above.
All 96-well assay plates were read using a GloMax® 96 Microplate Luminometer from Promega. The instrument was set to 0.5 s integration time. In order to obtain net change of signal, the reagent background values (signal from the well containing all reagent except primary antibodies) were subtracted from the sample values. To plot and analyze the data, Microsoft Excel and GraphPad Prism® Software were used. IC50 values were determined by using a nonlinear regression fit to a sigmoidal dose response (variable slope).

[1] = Figure 2b, Ab incubation 5 min, listed as TNF
[2] = Figure 2b, Ab incubation 10 min, listed as TNF
[3] = Figure 2b, Ab incubation 60 min, listed as TNF
[4] = Figure 2b, Ab incubation 90 min, listed as TNF
[5] = Figure 2b, Ab incubation 120 min, listed as TNF
[6] = Figure 2b, Ab incubation 10 min
[7] = Figure 2b, Ab incubation 30 min
[8] = Figure 2b, Ab incubation 60 min
[9] = Figure 2b, Ab incubation 90 min
[10] = Figure 2b, Ab incubation 120 min
[11] = Figure 2c, Cell # 3500, listed as TNF
[12] = Figure 2c, Cell # 7000, listed as TNF
[13] = Figure 2c, Cell # 14000, listed as TNF
[14] = Figure 2c, Cell # 21000, listed as TNF
[15] = Figure 2c, Cell # 28000, listed as TNF
[16] = Figure 2c, Cell # 35000, listed as TNF
[17] = Figure 2c, Cell # 42000, listed as TNF
[18] = Figure 2c, Cell # 49000, listed as TNF
[19] = Figure 2c, Cell # 56000, listed as TNF
[20] = Figure 2c, Cell # 63000, listed as TNF
[21] = Figure 3a and 3b, listed as TNF
[22] = No MG132, TNF 2 min, listed as TNF
[23] = No MG132, TNF 4 min, listed as TNF
[24] = No MG132, TNF 10 min, listed as TNF
[25] = No MG132, TNF 12 min, listed as TNF
[26] = No MG132, TNF 15 min, listed as TNF
[27] = No MG132, TNF 30 min, listed as TNF
[28] = plate #1, IkB Ab #1 75 ng/ml, P-IkB Ab #1 75 ng/ml, TNF

For TNFα, the “P-IkB Raw data” value [1] was 13050, the “P-IkB Subtract reagent background” value [1] was 1653 and 2223 and 1733 and the “P-IkB Raw data” value [2] was 15430. The “P-IkB Subtract reagent background” value [2] was 4075 and 4145 and 2725, the “P-IkB Subtract reagent background” value (Figure 2b, Ab incubation 30 min, listed as TNF) was 11622 and 12702 and 12152 and the “P-IkB Raw data” value [3] was 35930. For the same substance, the “P-IkB Subtract reagent background” value [3] was 23000 and 23900 and 26790, the “P-IkB Raw data” value [4] was 44160 and the “P-IkB Subtract reagent background” value [4] was 32005 and 32085 and 32105. The “P-IkB Raw data” value [5] was 26480, the “P-IkB Subtract reagent background” value [5] was 19503 and 18993 and 21543 and the “Fold change (TNF-treated /Non-treated)” value (Figure 2b, Ab incubation 5 min) was -51. For the same substance, the “Fold change (TNF-treated /Non-treated)” value [6] was 25, the “Fold change (TNF-treated /Non-treated)” value [7] was 10 and the “Fold change (TNF-treated /Non-treated)” value [8] was 14. For the same substance, the “Fold change (TNF-treated /Non-treated)” value [9] was 13, the “Fold change (TNF-treated /Non-treated)” value [10] was 12 and the “P-IkB Average” value (Figure 2b, Ab incubation 5 min) was 1870. The “P-IkB Average” value [6] was 3648, the “P-IkB Average” value [7] was 12158 and the “P-IkB Average” value [8] was 24563. For the same substance, the “P-IkB Average” value [9] was 32065, the “P-IkB Average” value [10] was 20013 and the Raw data [11] was 19860 and 20790. The Subtract background [11] was 6010 and 6150, the Raw data [12] was 22450 and 23090 and the Subtract background [12] was 8600 and 8450. For the same substance, the Raw data [13] was 26500 and 26620, the Subtract background [13] was 12650 and 11980 and the Raw data [14] was 26350 and 27260. The Subtract background [14] was 12500 and 12620, the Raw data [15] was 29180 and 29230 and the Subtract background [15] was 15330 and 14590. For the same substance, the Raw data [16] was 32490 and 30000, the Subtract background [16] was 18640 and 15360 and the Raw data [17] was 35680 and 35010. For the same substance, the Subtract background [17] was 21830 and 20370, the Raw data [18] was 36150 and 38410 and the Subtract background [18] was 22300 and 23770. The Raw data [19] was 38800 and 38570, the Subtract background [19] was 24950 and 23930 and the Raw data [20] was 40840 and 40330. The Subtract background [20] was 26990 and 25690, the Average (Figure 2c, Cell # 3500) was 6080 and the Average (Figure 2c, Cell # 7000) was 8525. It also gave an Average (Figure 2c, Cell # 14000) of 12315, an Average (Figure 2c, Cell # 21000) of 12560 and an Average (Figure 2c, Cell # 28000) of 14960. It also gave an Average (Figure 2c, Cell # 35000) of 17000, an Average (Figure 2c, Cell # 42000) of 21100 and an Average (Figure 2c, Cell # 49000) of 23035. For the same substance, the Average (Figure 2c, Cell # 56000) was 24440, the Average (Figure 2c, Cell # 63000) was 26340 and the “P-IkB Average” value (Figure 3a and 3b) was 18603. The “P-IkB Raw data” value [21] was 40970 and 39480 and 37340, the “P-IkB Subtract reagent background” value [21] was 20310 and 18820 and 16680 and the “P-IkB Average” value (No MG132, TNF 2 min) was 1340. For the same substance, the “P-IkB Raw data” value [22] was 17500 and 17960 and 17760 and 18420, the “P-IkB Subtract reagent background” value [22] was 930 and 1390 and 1190 and 1850 and the “P-IkB Average” value (No MG132, TNF 4 min) was 2908. For the same substance, the “P-IkB Raw data” value [23] was 18550 and 18960 and 19930 and 20470, the “P-IkB Subtract reagent background” value [23] was 1980 and 2390 and 3360 and 3900 and the “P-IkB Average” value (No MG132, TNF 6 min) was 9185. The “P-IkB Raw data” value (No MG132, TNF 6 min, listed as TNF) was 21700 and 24830 and 27800 and 28690, the “P-IkB Average” value (No MG132, TNF 8 min) was 17540 and the “P-IkB Raw data” value (No MG132, TNF 8 min, listed as TNF) was 27040 and 33390 and 37550 and 38460. For the same substance, the “P-IkB Average” value (No MG132, TNF 10 min) was 21585, the “P-IkB Raw data” value [24] was 32290 and 37160 and 40510 and 42660 and the “P-IkB Subtract reagent background” value [24] was 15720 and 20590 and 23940 and 26090. The “P-IkB Average” value (No MG132, TNF 12 min) was 19345, the “P-IkB Raw data” value [25] was 33820 and 35920 and 37120 and 36800 and the “P-IkB Subtract reagent background” value [25] was 17250 and 19350 and 20550 and 20230. The “P-IkB Average” value (No MG132, TNF 15 min) was 13560, the “P-IkB Raw data” value [26] was 29860 and 30140 and 30400 and 30120 and the “P-IkB Subtract reagent background” value [26] was 13290 and 13570 and 13830 and 13550. For the same substance, the “P-IkB Average” value (No MG132, TNF 30 min) was 3855, the “P-IkB Raw data” value [27] was 20170 and 19970 and 20370 and 21190 and the “P-IkB Subtract reagent background” value [27] was 3600 and 3400 and 3800 and 4620. For the same substance, the Raw data [28] was 32920 and the Subtract reagent background [28] was 14010.
